Reference: ChEMBL document CHEMBL1201862, “PubChem BioAssay data set” (2004)
The source made the active and inactive calls.

Legend:
[1] = Mycobacterium tuberculosis BioA enzyme inhibitor Measured in Biochemical System Using Plate Reader - 2163-02_Inhibitor_Dose_DryPowder_Activity.
[2] = miR-122 activators in hepatoma reporter cells, dose response, cell-based, Huh7 psiCHECK-miR122, Renilla luciferase, cherry-picked (AID 651956); assay type: functional;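 also: huh7 hepatoma cells stably carrying a psiCHECK-2 miR-122 sensor plasmid; renilla luciferase signal reporting endogenous miR-122 activity after 48 h compound exposure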
[3] = biological target: T1, Ubiquitin-conjugating enzyme E2 N (Homo sapiens, UniProt P61088); assay type: functional;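 also: Dose-response confirmation in a TR-FRET assay detecting UBC13-driven polyubiquitin chain formation, inhibition measured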
T1 sequence (P61088 whole entry): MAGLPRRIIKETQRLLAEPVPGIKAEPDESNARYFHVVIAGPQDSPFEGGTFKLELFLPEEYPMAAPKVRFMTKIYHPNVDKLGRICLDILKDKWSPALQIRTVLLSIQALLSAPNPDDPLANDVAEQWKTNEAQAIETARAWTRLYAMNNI

[4] = CEM21 lymphoblast cell cytotoxicity, dose response, cytotoxicity control for viral fusion inhibitor project, CellTiter-Glo luminescence, cherry-picked (AID 652042); assay type: functional, cell-based;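 also: potency for signal decrease meaning cytotoxicity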
HEK293 [5] = assay: HEK cell cytotoxicity by LDH release, dose response, cytotoxicity control for IDE activator project, fluorescence, HEK cells (AID 588440); assay type: functional, cell-based; details: Homo sapiens;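 also: cytotoxicity by LDH release measuring loss of membrane integrity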
[6] = ZM109 Env clade C HIV-1 fusion inhibitors, dose response, HeLa effector, CEM target cells, luciferase, cherry-pick (AID 652058); assay type: functional, cell-based
HEK293 [7] = assay: optical interference in Abeta FP readout, dose response, artefact control for IDE activator project, biochemical, fluorescence polarization (AID 588442); assay type: functional, cell-based; details: Homo sapiens
[8] = inhibitors of HIV Env-driven cell fusion, dose response, cherry-pick (AID 652057); assay type: functional, cell-based
[9] = biological target: T2, Apoptotic protease-activating factor 1 (Homo sapiens, UniProt O14727); assay type: functional
T2 sequence (O14727 whole entry): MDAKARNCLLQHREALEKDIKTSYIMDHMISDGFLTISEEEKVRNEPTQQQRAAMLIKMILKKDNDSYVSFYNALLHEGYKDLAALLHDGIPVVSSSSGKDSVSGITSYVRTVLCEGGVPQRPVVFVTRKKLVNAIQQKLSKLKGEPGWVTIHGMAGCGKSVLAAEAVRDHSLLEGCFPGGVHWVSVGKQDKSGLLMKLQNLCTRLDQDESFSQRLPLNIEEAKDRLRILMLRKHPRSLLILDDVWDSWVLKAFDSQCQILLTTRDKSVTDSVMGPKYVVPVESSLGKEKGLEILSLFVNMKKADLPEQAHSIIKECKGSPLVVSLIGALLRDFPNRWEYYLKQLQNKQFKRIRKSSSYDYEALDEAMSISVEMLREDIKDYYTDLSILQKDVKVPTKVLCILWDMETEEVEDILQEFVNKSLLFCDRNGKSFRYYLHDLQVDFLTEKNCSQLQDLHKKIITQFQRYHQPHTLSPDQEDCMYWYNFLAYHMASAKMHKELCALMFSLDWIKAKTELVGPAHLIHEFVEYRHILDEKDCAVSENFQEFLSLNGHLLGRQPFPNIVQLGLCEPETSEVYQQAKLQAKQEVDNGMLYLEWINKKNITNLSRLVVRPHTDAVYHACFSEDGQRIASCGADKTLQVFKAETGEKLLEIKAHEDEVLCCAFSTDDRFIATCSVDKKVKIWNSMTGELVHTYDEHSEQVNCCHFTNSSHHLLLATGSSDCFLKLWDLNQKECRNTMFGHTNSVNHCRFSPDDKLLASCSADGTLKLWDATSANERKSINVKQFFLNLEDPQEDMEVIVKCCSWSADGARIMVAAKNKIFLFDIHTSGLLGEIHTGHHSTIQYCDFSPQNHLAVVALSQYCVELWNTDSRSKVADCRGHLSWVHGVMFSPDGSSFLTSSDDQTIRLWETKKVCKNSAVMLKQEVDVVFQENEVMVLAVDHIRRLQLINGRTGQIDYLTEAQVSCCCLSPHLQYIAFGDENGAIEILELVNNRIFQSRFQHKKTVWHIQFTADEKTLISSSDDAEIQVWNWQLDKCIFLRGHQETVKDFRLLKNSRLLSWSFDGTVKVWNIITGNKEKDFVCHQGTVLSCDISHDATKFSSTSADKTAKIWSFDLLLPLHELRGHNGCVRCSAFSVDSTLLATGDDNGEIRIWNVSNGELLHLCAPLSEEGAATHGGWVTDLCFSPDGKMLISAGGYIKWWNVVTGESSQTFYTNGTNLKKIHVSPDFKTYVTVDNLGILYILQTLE

Insulin-degrading enzyme [10] = biological target: T3, Insulin-degrading enzyme (Homo sapiens, UniProt P14735); assay: activators of recombinant IDE enzyme, dose response, counter-screen for IDE activator project, biochemical, fluorescence polarization (AID 588681)
T3 sequence (P14735 whole entry): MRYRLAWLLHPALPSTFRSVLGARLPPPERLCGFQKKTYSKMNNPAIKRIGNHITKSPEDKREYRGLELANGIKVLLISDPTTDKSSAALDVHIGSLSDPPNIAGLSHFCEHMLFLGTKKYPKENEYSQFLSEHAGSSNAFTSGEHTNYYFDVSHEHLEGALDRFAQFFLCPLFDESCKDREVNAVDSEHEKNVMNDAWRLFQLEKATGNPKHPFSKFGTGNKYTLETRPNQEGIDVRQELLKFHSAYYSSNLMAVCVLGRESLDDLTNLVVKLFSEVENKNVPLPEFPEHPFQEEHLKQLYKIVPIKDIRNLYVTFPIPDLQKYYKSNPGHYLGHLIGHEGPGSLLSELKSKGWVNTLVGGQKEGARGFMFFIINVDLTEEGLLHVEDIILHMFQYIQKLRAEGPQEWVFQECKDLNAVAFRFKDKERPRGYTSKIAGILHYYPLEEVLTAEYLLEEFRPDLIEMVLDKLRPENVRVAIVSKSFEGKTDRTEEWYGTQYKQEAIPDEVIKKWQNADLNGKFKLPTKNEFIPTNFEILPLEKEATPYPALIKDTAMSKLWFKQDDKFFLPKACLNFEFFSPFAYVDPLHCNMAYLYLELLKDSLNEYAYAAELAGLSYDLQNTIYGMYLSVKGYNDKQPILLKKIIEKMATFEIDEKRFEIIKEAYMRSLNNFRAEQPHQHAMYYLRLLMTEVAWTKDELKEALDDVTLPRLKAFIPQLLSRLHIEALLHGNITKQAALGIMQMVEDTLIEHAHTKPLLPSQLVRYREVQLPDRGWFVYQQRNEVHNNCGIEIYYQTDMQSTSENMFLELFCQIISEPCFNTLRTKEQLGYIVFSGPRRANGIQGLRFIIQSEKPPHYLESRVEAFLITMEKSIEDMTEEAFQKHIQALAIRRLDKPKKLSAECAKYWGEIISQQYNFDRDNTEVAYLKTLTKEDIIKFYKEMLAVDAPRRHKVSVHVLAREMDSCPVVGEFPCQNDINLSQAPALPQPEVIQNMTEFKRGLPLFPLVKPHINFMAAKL

[11] = HEK293T cytotoxicity, dose response, cytotoxicity control for miR-122 modulator project, cell-based, activator set, cherry-pick (AID 720690); assay type: functional;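 also: HEK293T human cells scored for general mammalian cytotoxicity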
[12] = off-target signal loss in HeLa-CEM21 co-culture – HeLa F-luc CTL cells, cherry-picked, counter-screen for HIV-1 Env fusion inhibitor project, dose response (AID 652040); assay type: functional, cell-based;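 also: potency for signal decrease marking cytotoxic or nonspecific inhibition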
Insulin-degrading enzyme [13] = biological target: T3, Insulin-degrading enzyme; assay: activators of endogenous IDE in HEK cells, dose response, cell-based, fluorescence polarization (AID 588439); assay type: functional
[14] = HEK293T cytotoxicity, dose response, cytotoxicity control for miR-122 modulator project, cell-based, inhibitor set, cherry-pick, set 2 (AID 720697); assay type: functional
[15] = inhibitors of clade B AD8 Env fusion, dose response, cell-based, cherry-pick (AID 652062); assay type: functional;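 also: luciferase signal from cell-cell fusion driven by HIV-1 clade B AD8 Env; potency is for inhibitors of fusion seen as a drop in luminescence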

Cc1cccc(/C=C(\CCC(=O)O)c2nc3ccccc3s2)c1
AC50 [1]: 14.5 µM (active)

FC(F)(F)c1cc(CCN2CCNC[C@@H]2CC2CCCCC2)cc(C(F)(F)F)c1
AC50 [2]: 23.8 µM (active) | IC50 [3]: > 20 µM (inactive) | AC50 [4]: 7.74 µM (active) | IC50 (HEK293 [5]): 9.68 µM (active) | AC50 [6]: 11.5 µM (active) | EC50 (HEK293 [7]): > 54.7 µM (inactive) | AC50 [8]: 7.14 µM (active) | IC50 [9]: 62.5 µM (active) | EC50 (Insulin-degrading enzyme [10]): > 54.7 µM (inactive) | AC50 [11]: 7.47 µM (active) | AC50 [12]: 11.2 µM (active) | EC50 (Insulin-degrading enzyme [13]): 17.6 µM (inactive) | AC50 [14]: 8.59 µM (active) | AC50 [15]: 17.6 µM (active)
